Reference: patent publication US20190053492A1, “SUBSTITUTED PYRIDINE COMPOUNDS AS PESTICIDES” (Bayer CropScience Aktiengesellschaft, priority 2016, published 2019)

Key:
[1] = log P by HPLC on reversed-phase column (C 18), EEC Directive 79/831 Annex V.A8; format: physicochemical; conditions: 55° C.; for LOGP_HCOOH: log P (HCOOH); for LOGP_NEUTRAL: log P, neutral range
Procedure: Temperature: 55° C. […] Called log P (HCOOH) in the table. […] Called log P (neutral) in the table.

[2] = tested on: Ctenocephalides felis; test: Ctenocephalides felis oral test; format: in vivo; conditions: application rate 100 ppm in citrated cattle blood, after 2 days, adult cat fleas
Procedure: Ctenocephalides felis—Oral Test Solvent: dimethyl sulphoxide To produce a suitable active ingredient formulation, 10 mg of active ingredient are mixed with 0.5 ml of dimethyl sulphoxide. Dilution with citrated cattle blood gives the desired concentration. About 20 unfed adult cat fleas (Ctenocephalides felis) are placed into a chamber which is closed at the top and bottom with gauze. A metal cylinder whose bottom end is closed with parafilm is placed onto the chamber. The cylinder contains the blood/active ingredient formulation, which can be imbibed by the fleas through the parafilm membrane. After 2 days, the kill in % is determined. 100% means that all of the fleas have been killed; 0% means that none of the fleas have been killed.

[3] = tested on: Phaedon cochleariae; test: Phaedon cochleariae spray test; format: in vivo; conditions: after 7 days, Chinese cabbage leaf discs
Outline: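 Larval kill read at day 7 as percent, where 100% means every larva dead and 0% none; larvae were placed on dried Brassica pekinensis leaf discs previously sprayed with the formulation (acetone/dimethylformamide solvent, alkylaryl polyglycol ether emulsifier, water).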

[4] = tested on: Spodoptera frugiperda; test: Spodoptera frugiperda spray test; format: in vivo; conditions: after 7 days, maize leaf discs
Outline: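 Efficacy in % was scored at 7 days against armyworm caterpillars placed on dried, compound-sprayed Zea mays leaf discs. Compound was dissolved in acetone/dimethylformamide and diluted in water with 1000 ppm alkylaryl polyglycol ether. 100% means all caterpillars were killed.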

[5] = acidic range pH 2.7, 0.1% aqueous formic acid and acetonitrile, reversed-phase column (C 18)
[6] = HPLC on reversed-phase column (C 18)

Structure (SMILES)	LOGP_HCOOH [1, 5]	efficacy (kill in %) [2]	efficacy (beetle larvae killed) ([3]; application rate 500 g/ha)	efficacy (caterpillars killed) ([4]; application rate 500 g/ha)	LOGP_NEUTRAL [1, 6]	efficacy (beetle larvae killed) ([3]; application rate 100 g/ha)	efficacy (caterpillars killed) ([4]; application rate 100 g/ha)	LOGP_HCOOH ([1]; acidic range at pH 2.7, 0.1% aqueous formic acid and acetonitrile, HPLC on reversed-phase column (C 18))
N#Cc1cccc(CNC(=O)c2cc(-c3ccc(C(F)(F)F)cc3)cc(NC(=O)C3CC3)n2)c1 [Example I-004]	3.83	100%	100%	100%	–	–	–	–
CC(=O)Nc1cc(-c2ccc(C(F)(F)F)cc2)cc(C(=O)NCc2ccc(C#N)cc2)n1 [Example I-017]	3.15	98%	100%	100%	3.13	–	–	–
N#CC1(NC(=O)c2cc(-c3ccc(C(F)(F)F)cc3)cc(NC(=O)C3CC3)n2)CC1 [Example I-041]	3.28	95%	100%	100%	3.18	100%	100%	–
N#Cc1ccc(CNC(=O)c2cc(-c3ccc(OC(F)(F)F)cc3)cc(NC(=O)C3CC3)n2)cn1 [Example I-051]	3.49	100%	100%	100%	3.37	100%	100%	–
O=C(NCc1ccc(C(F)(F)F)cc1F)c1cc(-c2ccc(OC(F)(F)F)cc2)cc(NC(=O)C2CC2)n1 [Example I-065]	4.80	95%	83%	100%	4.74	–	100%	–
CC(C)C(=O)Nc1cc(-c2ccc(OC(F)(F)F)cc2)cc(C(=O)NC2(C#N)CC2)n1 [Example I-075]	3.58	100%	100%	100%	3.47	–	–	–
N#CC1(NC(=O)c2cc(-c3ccc(OC(F)(F)F)cc3)cc(NC(=O)C3CC3)n2)CC1 [Example I-076]	3.39	100%	100%	100%	3.29	100%	100%	–
O=C(Cc1ccc(C(F)(F)F)cc1)Nc1cc(-c2ccc(C(F)(F)F)cc2)cc(C(=O)NC2CC2)n1 [Example I-088]	4.37	90%	–	83%	5.54	–	100%	–
O=C(NCc1ccc2c(c1)OC(F)(F)O2)c1cc(-c2ccc(OC(F)(F)F)cc2)cc(NC(=O)C2CC2)n1 [Example I-095]	4.79	95%	83%	100%	4.61	–	–	–
O=C(NCc1ccc([N+](=O)[O-])cc1F)c1cc(-c2ccc(OC(F)(F)F)cc2)cc(NC(=O)C2CC2)n1 [Example I-102]	4.29	100%	100%	100%	4.16	100%	83%	–
N#CC1(NC(=O)c2cc(-c3ccc(OC(F)(F)F)cc3)cc(NC(=O)C3CC3)n2)CCC1 [Example I-109]	3.78	100%	100%	100%	3.68	–	–	–
N#Cc1ccc(CNC(=O)c2cc(-c3ccc(C(F)(C(F)(F)F)C(F)(F)F)cc3)cc(NC(=O)C3CC3)n2)cc1 [Example I-150]	–	95%	–	100%	4.41	–	100%	4.51
